Test results as given in the NIST ThermoML archive (doi:10.1021/je050039p).
± gives the expanded uncertainty stated by the source.

Conditions: Crystal 1; visual observation

Row | Normal melting temperature | SMILES
1 | 5.90 ± 0.5 °C | c1ccccc1 [benzene]
2 | -4.14 ± 0.5 °C | CCCCCCCCCCCCC [tridecane]
